In PMC7318034, “Safety, Pharmacokinetics, and Drug-Drug Interaction Potential of Intravenous Durlobactam, a β-Lactamase Inhibitor, in Healthy Subjects” (Antimicrobial Agents and Chemotherapy, 2020):
Like-named read-outs stand apart in the source and are kept apart here.

Test: Part A single-ascending-dose plasma PK in healthy subjects
Assay type: in vivo, human
Conditions: for half-life / AUC(0-inf) / Cmax / clearance / Tmax / AUC(0-t) / Vd: human, plasma; for Tmax: median; for Vd: read-out: Vss
Procedure: This was a 4-part, double-blind, placebo-controlled study (15 cohorts) of DUR administered as a 3-h i.v. infusion (except for cohort 4, in which a 2-h i.v. infusion was evaluated) (see Table S5 in the supplemental material).
The blank control matrix was made up of human plasma (BioreclamationIVT) diluted 1:1 with SigmaFast (reconstituted protease inhibitor cocktail tablet [product S8820; Sigma-Aldrich, St. Louis, MO] in 10 ml of water) for preparation of calibration standards and QC samples. […] A 100-μl aliquot of the supernatant was transferred to 96-well plates. Samples were diluted further with 400 μl of water, and 5 μl of sample was injected into the LC-MS/MS system for analysis. […] The LLOQ for all analytes was 5 ng/ml.
AUC was calculated using the log-linear trapezoidal rule.
Pharmacokinetic parameters were summarized at each assessment time point using the mean ± standard deviation (SD), the percent coefficient of variation (CV), median, minimum, and maximum. Single-ascending-dose study data were assessed for dose proportionality using Cmax and AUC, and accumulation ratios was determined using repeat-dose cohorts. […] Noncompartmental analysis of PK parameters was performed using Phoenix WinNonlin (v6.4) software to determine PK parameters.

[1] = iv, 0.25 g, part A cohort 1, single 0.25 g, 3-h i.v. infusion
[2] = iv, 0.5 g, part A cohort 2, single 0.5 g, 3-h i.v. infusion
[3] = iv, 1 g, part A cohort 3, single 1.0 g, 3-h i.v. infusion
[4] = iv, 1 g, part A cohort 4, single 1.0 g, 2-h i.v. infusion
[5] = iv, 1 g, part A cohort 8 (elderly subjects >65 years), single 1.0 g, 3-h i.v. infusion
[6] = iv, 2 g, part A cohort 5, single 2.0 g, 3-h i.v. infusion
[7] = iv, 4 g, part A cohort 6, single 4.0 g, 3-h i.v. infusion
[8] = iv, 8 g, part A cohort 7, single 8.0 g, 3-h i.v. infusion

**Q.** For CC1=C[C@@H]2CN(C(=O)N2OS(=O)(=O)O)[C@@H]1C(N)=O [DUR, Durlobactam], which “reduction of volume of distribution (V) in elderly subjects” value (cohort of elderly subjects, DUR 1 g) is on record?
**A.** The value was “approximately 50%”.

**Q.** What about the half-life (intravenous, range across single doses of 0.25 g to 8 g, read-out: mean half-life (t1/2)) of the same molecule?
**A.** Its half-life is 1.5 to 2.8 h.

**Q.** What about the AUC(0-inf) [1] of the same molecule?
**A.** Its AUC(0-inf) is 25.5 ± 3.7 µg·h/mL.

**Q.** And the Cmax [1]?
**A.** Its Cmax is 6900 ± 1000 ng/mL.

**Q.** And the clearance [1]?
**A.** Its clearance is 167 mL/min.

**Q.** What about the half-life (iv, 0.25 g, part A cohort 1, single 0.25 g, 3-h i.v. infusion, mean ± SD, n=6, read-out: t1/2 (converted)) of the same molecule?
**A.** The half-life was 1.5 ± 0.1 h.

**Q.** And the Tmax [1]?
**A.** The Tmax was 3 h.

**Q.** What about the AUC(0-t) (iv, 0.25 g, part A cohort 1, single 0.25 g, 3-h i.v. infusion, read-out: AUC0–24) of the same molecule?
**A.** The AUC(0-t) was 25.5 ± 3.7 µg·h/mL.

**Q.** And the AUC(0-t) (iv, 0.25 g, part A cohort 1, single 0.25 g, 3-h i.v. infusion, read-out: AUC0–t)?
**A.** The AUC(0-t) was 25.4 ± 3.7 µg·h/mL.

**Q.** And the Vd [1]?
**A.** Its Vd is 16.6 ± 3.6 L.

**Q.** And the AUC(0-inf) [2]?
**A.** Its AUC(0-inf) is 47.8 ± 7.6 µg·h/mL.

**Q.** And the Cmax [2]?
**A.** Its Cmax is 9900 ± 2000 ng/mL.

**Q.** And the clearance [2]?
**A.** Its clearance is 178 mL/min.

**Q.** What about the half-life (iv, 0.5 g, part A cohort 2, single 0.5 g, 3-h i.v. infusion, mean ± SD, n=6, read-out: t1/2 (converted)) of the same molecule?
**A.** The half-life was 2 ± 0.4 h.

**Q.** What about the Tmax [2] of the same molecule?
**A.** The Tmax was 3 h.

**Q.** And the AUC(0-t) (iv, 0.5 g, part A cohort 2, single 0.5 g, 3-h i.v. infusion, read-out: AUC0–24)?
**A.** The AUC(0-t) was 47.7 ± 7.5 µg·h/mL.

**Q.** What about the AUC(0-t) (iv, 0.5 g, part A cohort 2, single 0.5 g, 3-h i.v. infusion, read-out: AUC0–t) of the same molecule?
**A.** Its AUC(0-t) is 47.4 ± 7.7 µg·h/mL.

**Q.** What about the Vd [2] of the same molecule?
**A.** The Vd was 25.8 ± 2.9 L.

**Q.** What about the AUC(0-inf) [3] of the same molecule?
**A.** Its AUC(0-inf) is 76.1 ± 10.5 µg·h/mL.

**Q.** What about the Cmax [3] of the same molecule?
**A.** Its Cmax is 20700 ± 2800 ng/mL.

**Q.** What about the clearance [3] of the same molecule?
**A.** The clearance was 223 mL/min.

**Q.** And the half-life (iv, 1 g, part A cohort 3, single 1.0 g, 3-h i.v. infusion, mean ± SD, n=6, read-out: t1/2 (converted))?
**A.** The half-life was 2 ± 0.3 h.

**Q.** What about the Tmax [3] of the same molecule?
**A.** The Tmax was 3 h.

**Q.** And the AUC(0-t) (iv, 1 g, part A cohort 3, single 1.0 g, 3-h i.v. infusion, read-out: AUC0–24)?
**A.** The AUC(0-t) was 76.1 ± 10.5 µg·h/mL.

**Q.** What about the AUC(0-t) (iv, 1 g, part A cohort 3, single 1.0 g, 3-h i.v. infusion, read-out: AUC0–t) of the same molecule?
**A.** Its AUC(0-t) is 75.6 ± 10.4 µg·h/mL.

**Q.** And the Vd [3]?
**A.** Its Vd is 25.7 ± 5 L.

**Q.** What about the AUC(0-inf) [4] of the same molecule?
**A.** Its AUC(0-inf) is 101 ± 28.9 µg·h/mL.

**Q.** What about the Cmax [4] of the same molecule?
**A.** Its Cmax is 31300 ± 6900 ng/mL.

**Q.** What about the clearance [4] of the same molecule?
**A.** The clearance was 177 mL/min.

**Q.** What about the half-life (iv, 1 g, part A cohort 4, single 1.0 g, 2-h i.v. infusion, mean ± SD, n=6, read-out: t1/2 (converted)) of the same molecule?
**A.** Its half-life is 2.2 ± 0.2 h.

**Q.** And the Tmax [4]?
**A.** Its Tmax is 2 h.

**Q.** And the AUC(0-t) (iv, 1 g, part A cohort 4, single 1.0 g, 2-h i.v. infusion, read-out: AUC0–24)?
**A.** The AUC(0-t) was 101 ± 28.9 µg·h/mL.

**Q.** What about the AUC(0-t) (iv, 1 g, part A cohort 4, single 1.0 g, 2-h i.v. infusion, read-out: AUC0–t) of the same molecule?
**A.** The AUC(0-t) was 101 ± 29 µg·h/mL.

**Q.** What about the Vd [4] of the same molecule?
**A.** The Vd was 22.7 ± 6.4 L.

**Q.** And the AUC(0-inf) [5]?
**A.** Its AUC(0-inf) is 151 ± 14.1 µg·h/mL.

**Q.** And the Cmax [5]?
**A.** The Cmax was 37800 ± 2500 ng/mL.

**Q.** What about the clearance [5] of the same molecule?
**A.** The clearance was 112 mL/min.

**Q.** And the half-life (iv, 1 g, part A cohort 8 (elderly subjects >65 years), single 1.0 g, 3-h i.v. infusion, mean ± SD, n=6, read-out: t1/2 (converted))?
**A.** Its half-life is 2.4 ± 0.3 h.

**Q.** And the Tmax [5]?
**A.** Its Tmax is 3 h.

**Q.** What about the AUC(0-t) (iv, 1 g, part A cohort 8 (elderly subjects >65 years), single 1.0 g, 3-h i.v. infusion, read-out: AUC0–24) of the same molecule?
**A.** The AUC(0-t) was 151 ± 14 µg·h/mL.

**Q.** And the AUC(0-t) (iv, 1 g, part A cohort 8 (elderly subjects >65 years), single 1.0 g, 3-h i.v. infusion, read-out: AUC0–t)?
**A.** The AUC(0-t) was 151 ± 14 µg·h/mL.

**Q.** What about the Vd [5] of the same molecule?
**A.** Its Vd is 14.5 ± 2 L.

**Q.** And the AUC(0-inf) [6]?
**A.** Its AUC(0-inf) is 173 ± 25.6 µg·h/mL.

**Q.** And the Cmax [6]?
**A.** Its Cmax is 41500 ± 6400 ng/mL.

**Q.** And the clearance [6]?
**A.** Its clearance is 197 mL/min.

**Q.** And the half-life (iv, 2 g, part A cohort 5, single 2.0 g, 3-h i.v. infusion, mean ± SD, n=6, read-out: t1/2 (converted))?
**A.** The half-life was 2.2 ± 0.2 h.

**Q.** And the Tmax [6]?
**A.** Its Tmax is 2.5 h.

**Q.** And the AUC(0-t) (iv, 2 g, part A cohort 5, single 2.0 g, 3-h i.v. infusion, read-out: AUC0–24)?
**A.** Its AUC(0-t) is 173 ± 25.6 µg·h/mL.

**Q.** And the AUC(0-t) (iv, 2 g, part A cohort 5, single 2.0 g, 3-h i.v. infusion, read-out: AUC0–t)?
**A.** The AUC(0-t) was 173 ± 25.6 µg·h/mL.

**Q.** And the Vd [6]?
**A.** The Vd was 24.3 ± 3.2 L.

**Q.** And the AUC(0-inf) [7]?
**A.** Its AUC(0-inf) is 368 ± 55.9 µg·h/mL.

**Q.** And the Cmax [7]?
**A.** The Cmax was 96200 ± 13600 ng/mL.

**Q.** And the clearance [7]?
**A.** The clearance was 185 mL/min.

**Q.** What about the half-life (iv, 4 g, part A cohort 6, single 4.0 g, 3-h i.v. infusion, mean ± SD, n=6, read-out: t1/2 (converted)) of the same molecule?
**A.** The half-life was 2.7 ± 0.6 h.

**Q.** What about the Tmax [7] of the same molecule?
**A.** Its Tmax is 3 h.

**Q.** What about the AUC(0-t) (iv, 4 g, part A cohort 6, single 4.0 g, 3-h i.v. infusion, read-out: AUC0–24) of the same molecule?
**A.** Its AUC(0-t) is 367 ± 55.1 µg·h/mL.

**Q.** What about the AUC(0-t) (iv, 4 g, part A cohort 6, single 4.0 g, 3-h i.v. infusion, read-out: AUC0–t) of the same molecule?
**A.** The AUC(0-t) was 368 ± 55 µg·h/mL.

**Q.** And the Vd [7]?
**A.** The Vd was 22.4 ± 3.6 L.

**Q.** And the AUC(0-inf) [8]?
**A.** The AUC(0-inf) was 732 ± 163 µg·h/mL.

**Q.** And the Cmax [8]?
**A.** The Cmax was 176000 ± 29000 ng/mL.

**Q.** And the clearance [8]?
**A.** The clearance was 190 mL/min.

**Q.** And the half-life (iv, 8 g, part A cohort 7, single 8.0 g, 3-h i.v. infusion, mean ± SD, n=6, read-out: t1/2 (converted))?
**A.** The half-life was 2.8 ± 0.4 h.

**Q.** What about the Tmax [8] of the same molecule?
**A.** The Tmax was 3 h.

**Q.** And the AUC(0-t) (iv, 8 g, part A cohort 7, single 8.0 g, 3-h i.v. infusion, read-out: AUC0–24)?
**A.** The AUC(0-t) was 730 ± 164 µg·h/mL.

**Q.** What about the AUC(0-t) (iv, 8 g, part A cohort 7, single 8.0 g, 3-h i.v. infusion, read-out: AUC0–t) of the same molecule?
**A.** Its AUC(0-t) is 731 ± 163 µg·h/mL.

**Q.** What about the Vd [8] of the same molecule?
**A.** Its Vd is 28.1 ± 9.5 L.
